Laboratory results as given in ChEMBL document CHEMBL1156817, “Fructose-1,6-bisphosphatase Inhibitors. 2. Design, synthesis, and structure-activity relationship of a series of phosphonic acid containing benzimidazoles that function as 5'-adenosinemonophosphate (AMP) mimics” (J Med Chem, 2010).
The source made the active and inactive calls. The calls are words filed in the database; no cut-off is given here.

Key:
Rattus norvegicus [1] = test: Reduction of blood glucose level in 18 hrs fasted normal Sprague-Dawley rat at 10 mg/kg, iv after 1 hr interval; assay type: functional; set-up: scale not given: the % may be the effect or the level left
Adenosine kinase = Adenosine kinase (Homo sapiens, UniProt P55263); test: Inhibition of adenosine kinase AMP binding site
Chain of Adenosine kinase (P55263 whole entry): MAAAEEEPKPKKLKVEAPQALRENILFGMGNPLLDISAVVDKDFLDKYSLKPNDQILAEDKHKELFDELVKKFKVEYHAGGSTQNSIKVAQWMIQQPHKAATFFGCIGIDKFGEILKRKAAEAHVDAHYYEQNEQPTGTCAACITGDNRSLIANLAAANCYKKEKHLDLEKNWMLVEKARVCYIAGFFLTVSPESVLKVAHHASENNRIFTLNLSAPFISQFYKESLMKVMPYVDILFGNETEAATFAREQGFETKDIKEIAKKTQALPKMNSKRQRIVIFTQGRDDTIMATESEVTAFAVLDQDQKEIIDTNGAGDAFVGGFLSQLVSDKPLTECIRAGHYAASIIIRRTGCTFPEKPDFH

[2] = Inhibition of adenylate kinase AMP binding site
Hepatocyte [3] = test: Inhibition of glucose production in rat primary hepatocytes at 10 uM; assay type: functional, cell-based
Hepatocyte [4] = test: Inhibition of glucose production in rat primary hepatocytes at 100 uM; assay type: functional, cell-based
Rattus norvegicus [5] = test: Reduction of blood glucose level in 5 hrs fasted ZDF rat at 10 mg/kg, iv administered every 1 hr for 6 hrs; assay type: functional, organism-based; set-up: dose 10 mg/kg
[6] = Oral bioavailability in 18 hrs fasted normal Sprague-Dawley rat up to 100 mg/kg by urinary excretion assay; assay type: ADME, organism-based; settings: urine
[7] = target: T1, ATP-dependent 6-phosphofructokinase, muscle type (Homo sapiens, UniProt P08237); test: Activation of phosphofructokinase AMP binding site
T1 sequence (P08237 whole entry): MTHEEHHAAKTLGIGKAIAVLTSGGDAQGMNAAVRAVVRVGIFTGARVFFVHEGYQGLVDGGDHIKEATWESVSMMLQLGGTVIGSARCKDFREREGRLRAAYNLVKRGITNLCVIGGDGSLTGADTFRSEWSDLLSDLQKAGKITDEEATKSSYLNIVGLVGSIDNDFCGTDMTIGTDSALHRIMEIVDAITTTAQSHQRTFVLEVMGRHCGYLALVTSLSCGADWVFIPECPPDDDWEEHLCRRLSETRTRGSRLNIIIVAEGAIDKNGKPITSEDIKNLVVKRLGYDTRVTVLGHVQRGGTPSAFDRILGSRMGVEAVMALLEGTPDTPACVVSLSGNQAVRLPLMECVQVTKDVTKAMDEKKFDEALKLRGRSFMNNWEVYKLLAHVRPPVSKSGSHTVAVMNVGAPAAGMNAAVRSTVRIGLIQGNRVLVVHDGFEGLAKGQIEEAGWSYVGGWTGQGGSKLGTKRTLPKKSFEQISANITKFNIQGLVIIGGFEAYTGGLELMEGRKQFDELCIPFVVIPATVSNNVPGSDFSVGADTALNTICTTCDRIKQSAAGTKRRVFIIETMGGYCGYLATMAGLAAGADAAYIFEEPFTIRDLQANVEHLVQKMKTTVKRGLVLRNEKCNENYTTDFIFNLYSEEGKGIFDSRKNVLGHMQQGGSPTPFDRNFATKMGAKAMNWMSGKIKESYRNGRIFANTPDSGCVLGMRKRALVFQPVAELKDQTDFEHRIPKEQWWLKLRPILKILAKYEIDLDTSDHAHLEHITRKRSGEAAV

[8] = Activation of glycogen phosphorylase AMP binding site

SMILES: CCc1cc(F)c(N)c2nc(-c3ccc(P(=O)(O)O)o3)n(CC(C)C)c12
- Activity (Rattus norvegicus [1]): 64%
- IC50 (Adenosine kinase): > 100 µM
- IC50 [2]: > 100 µM
- Activity (Hepatocyte [3]): Active
- Activity (Hepatocyte [4]): Active
- Activity (Rattus norvegicus [5]): Active
- bioavailability [6]: 1%
- EC50 [7]: > 100 µM
- EC50 [8]: > 100 µM
